Assay results published in patent US9598363B2, “Plant growth regulating compounds” (SYNGENTA PARTICIPATIONS AG, priority 2013, dated 2017).

Experiments:
[1] = tested on: Orobanche cumana Wallr. seeds; experiment: Orobanche cumana seed germination test on glass fiber filter paper in petri dishes; assay type: in vivo; settings: preconditioned Orobanche cumana seeds, N = 5 × 100 seeds
Method: The effect of compounds of Formula (I) on germination of Orobanche cumana Wallr. seeds was evaluated on glass fiber filter paper (GFFP) in petri dishes. Seeds were preconditioned at moisture and suitable temperature to become responsive to the specific chemical germination stimulants.
Test compounds were dissolved in DMSO (10,000 mg/L) and stored at room temperature in a desiccators with desiccants. The stock solutions were dissolved with deionised water to the appropriate final test concentration.
Seeds of O. cumana race ‘F’ were collected from sunflower fields in Manzanilla (Seville, Spain) in 2008 (seed lot IN153) and stored at room temperature. To separate seeds from heavy organic debris, a modified sucrose floatation technique as described by Hartman & Tanimonure (Plant Disease (1991), 75, p. 494) was applied. Seeds were filled into a separation funnel and stirred in water. When seeds floated to the surface, the water fraction containing heavy debris was discarded. Seeds were re-suspended in 2.5 M sucrose solution (specific gravity of 1.20) and heavy debris was allowed to settle down for 60 min. After removing debris, seeds were disinfected in 1% sodium hypochlorite solution and 0.025% (v/v) Tween 20 for 2 min. The seeds were decanted onto two layers of cheesecloth, rinsed with sterile deionised water and re-suspended in sterile deionised water. 2 mL of the seed suspension containing approximately 150-400 seeds was spread evenly on two layers of sterile glass fiber filter paper disc ([…]) in Petri dishes (Ø9 cm). After wetting the discs with 3 mL sterile deionised water, petri dishes were sealed with parafilm. Seeds were incubated for 10 days at 20° C. in the dark for seed conditioning. The upper disc with conditioned seeds was briefly dried, transferred to a petri dish lined with a dry GFFP disc, and wetted with 6 mL of the appropriate test solution. The compounds of Formula (I) were tested at concentrations of 0.01, 0.1, and 1 mg/L. The strigolactone analogue GR24 (commercially available as a mixture of isomers) was included as positive control and 0.01% DMSO as negative control. All treatments were tested in five replicates. Seeds were re-incubated at 20° C. in the dark and examined for germination 10 days later. The radicles of germinated seeds were stained for 5 min with blue ink (PELIKAN #4001, Germany) in 5% acetic acid according to Long et al. (Seed Science Research (2008), 18, p. 125). After staining, seeds were photographed using a camera stand mounted with a digital SLR camera (Canon EOS 5D). Germination of 100 seeds per replicate was evaluated on digital images. Seeds were considered germinated when the radicle protruded from the seed coat.

[2] = 1 mg/L, control (0.01% DMSO): 0.75% germination
[3] = concentration 0.01 mg/L, control (0.01% DMSO): 1.4% germination
[4] = concentration 0.1 mg/L, control (0.01% DMSO): 1.4% germination
[5] = concentration 1 mg/L, control (0.01% DMSO): 1.4% germination

With `C#CCN1C(=O)C(C)=CC1Oc1ccc(Br)cc1` (stereo not shown) the melting point was 92 to 94 °C.
For `COCN1C(=O)C(C)=CC1OC(=O)NCc1ccccc1` (stereo not shown) [Ia-1, [1-(methoxymethyl)-4-methyl-5-oxo-2H-pyrrol-2-yl]N-benzylcarbamate], the “Germination (%)” value [1, 2] was 86.8%.
With `CC1=CC(OC(=O)NCc2ccccc2)N(C)C1=O` (stereo not shown) [Ia-2, (1,4-dimethyl-5-oxo-2H-pyrrol-2-yl) N-benzylcarbamate] the melting point was 106 °C and the “Germination (%)” value [1, 2] was 76.6%.
For `CON1C(=O)C(C)=CC1OC(=O)NCc1ccccc1` (stereo not shown) [Ia-3, (1-methoxy-4-methyl-5-oxo-2H-pyrrol-2-yl) N-benzylcarbamate], the “Germination (%)” value [1, 2] was 44.8%.
In the case of `CC1=CC(OC(=O)NCc2ccccc2)N(CC(F)(F)F)C1=O` (stereo not shown) [Ia-5, [4-methyl-5-oxo-1-(2,2,2-trifluoroethyl)-2H-pyrrol-2-yl]N-benzylcarbamate], the “Germination (%)” value [1, 2] is reported as 16.2%.
For `CC1=CC(OC(=O)NCc2ccccc2)N(C2CC2)C1=O` (stereo not shown) [Ia-6, (1-cyclopropyl-4-methyl-5-oxo-2H-pyrrol-2-yl) N-benzylcarbamate], the “Germination (%)” value [1, 2] was 76.4%.
For `CC1=CC(OC(=O)NCc2ccccc2)N(C)C1=O` (stereo not shown) [drawing 24], the “Germination (%)” value [1, 3] was 60.8%, the “Germination (%)” value [1, 4] was 67.4% and the “Germination (%)” value [1, 5] was 76.6%.
For `CC1=CC(OC(=O)NCc2ccccc2)OC1=O` (stereo not shown) [reference compound], the “Germination (%)” value [1, 3] was 8.8%, the “Germination (%)” value [1, 4] was 41.8% and the “Germination (%)” value [1, 5] was 82.6%.
For `CC1=CC(O/C=C2/C(=O)OC3c4ccccc4CC23)OC1=O` (stereo not shown) [reference compound], the “Germination (%)” value [1, 3] was 65%, the “Germination (%)” value [1, 4] was 78.4% and the “Germination (%)” value [1, 5] was 86.6%.
